Measurements reported in ChEMBL document CHEMBL1124604, “Synthesis and benzodiazepine receptor affinities of rigid analogues of 3-carboxy-beta-carbolines: demonstration that the benzodiazepine receptor recognizes preferentially the s-cis conformation of the 3-carboxy group” (J Med Chem, 1989).

assay: In vitro inhibition of [3H]flunitrazepam binding to GABA-A receptor of rat cerebral cortex membranes; format: cell membranes, Membrane

Structure (SMILES)	IC50 [µM]
CNC(=O)c1cc2c(cn1)[nH]c1ccccc12	0.197
CCOC(=O)c1cc2c(cn1)[nH]c1ccccc12	0.007
CCc1c(C(=O)NC)[nH]cc2nc3ccccc3c1-2	> 10
COC(=O)c1cc2c(cn1)[nH]c1ccccc12 [BETA-CCM]	0.0035

Further lines, results first:

IC50 [µM]	Structure (SMILES)
0.042	O=C1OCCc2c1[nH]cc1nc3ccccc3c2-1
0.15	O=C1NCCc2c1[nH]cc1nc3ccccc3c2-1
0.027	CCc1c(C(=O)OC)[nH]cc2nc3ccccc3c1-2
